This note sets out measurements from patent US9234025B2, “Extracellular allosteric inhibitor binding domain from a tyrosine kinase receptor” (SANOFI, priority 2009, dated 2016).

For one assay, the target named is T1, FGFR2 (Homo sapiens, UniProt P21802).
T1 construct: or the expression of the entire intact receptor in its native environment
The assay can be described thus: FGF ligand binding to FGFR2 in intact cells. To be noted: receptor expressed in intact cells.

Assay [1] concerns the target T2, hFGFR1IIIcα-Hemagluttinin (Homo sapiens, UniProt P11362).
T2 construct: expressed in transfected cells; host or cells: rat fat-pad endothelial cells (RFPEC)
The assay can be described thus: FGFR1 phosphorylation in rat fat-pad endothelial cells. Type of assay: cell-based. As to the method: Rat fat-pad endothelial cells, stably transfected with hFGFR1IIIcα-Hemagluttinin, were grown to 80-90% confluency and serum starved (0.5% FBS) for 24 h. Stimulation was performed during 5 minutes with FGF2 at 2 ng/ml in combination with SSR or DMSO (as control). Cell lysates were centrifuged at 12,000 g for 10 min, and the supernatants were collected. HA-tagged proteins were immunoprecipitated by incubation of cell lysates overnight at 4° C. in the presence of agarose conjugated anti-HA antibodies. Immune complexes were washed three times with 1 ml of lysis buffer; proteins were eluted via incubation with 50 μl of 2×SDS sample buffer and boiling. Proteins were separated on Novex polyacrylamide gels (Invitrogen, Carlsbad, Calif.) and subsequently transferred onto Hybond ECL nitrocellulose membranes (Amersham Pharmacia). Following incubation with 5% non-fat milk powder in PBS, the membranes were incubated overnight at 4° C. with the following antibodies: pFGFR (CST: 3471) and FGFR1 (CST: 3472).

For a further assay, the target named is FGF2 (Homo sapiens, UniProt P09038). The assay can be described thus: FGF2 dimerization. Type of assay: biochemical.
Sequence of FGF2 (P09038 134-288, species assumed): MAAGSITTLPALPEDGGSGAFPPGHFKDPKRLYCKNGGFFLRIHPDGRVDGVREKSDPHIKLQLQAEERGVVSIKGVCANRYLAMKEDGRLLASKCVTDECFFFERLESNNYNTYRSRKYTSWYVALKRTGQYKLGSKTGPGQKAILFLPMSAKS
Another assay concerns HUVEC. The assay can be described thus: cell migration with various growth factors (modified Boyden chamber). In kind it is cell-based, human. To be noted: SSR 1 μM. On the procedure:
Cell migration was assessed by a modified Boyden chamber assay, by using 24-well inserts containing 8 μm pore size transwell permeable supports with a polycarbonate membrane (Costar, Corning Inc.). Exponentially growing cells were starved in 0.2% FBS containing medium for 16 hours and resuspended at 5×10^5 cells/ml in the same low serum medium. 100 μl of the cell suspension were seeded in the upper chamber, while chemoattractants and/or SSR were placed in the lower chamber. Chemoattractants tested include: human PDGF-BB, IGF-I, PIGF, EGF, all at 100 ng/ml, in the presence or absence of SSR (1 μM). 10% FBS containing medium was used a positive control. After 6 hours incubation at 37° C., cells on the upper side of the membrane were scraped using a cotton swab, while migrated cells on the lower surface were fixed with 1% paraformaldehyde in PBS and nuclei stained with DAPI for quantification using a fluorescent microsope. Quanitifcation is performed by making 5 random images at a magnification of 10× and by counting the number of nuclei.

Another assay concerns the target T3, FGFR3^∂23 (Homo sapiens, UniProt P22607).
T3 construct: two ECD fragments, FGFR2^∂23 (consisting of domain D2 and 3) and FGFR3^∂23; made in house
The assay can be described thus: isothermal titration calorimetry (ITC), FGFR3. Type of assay: binding. On the technique in general: Isothermal titration calorimetry measures the heat released or taken up as one component is titrated into another.

In assay [2] the test system is FGFR2^∂23-Y328D. The assay can be described thus: FGF2-induced ERK1/2 phosphorylation in HEK293 cells, FGFR2 Y328D. In kind it is cell-based, human. Conditions: Erk1/2 western blot densitometry IC50. On the procedure:
(§1) HEK293 cells were either transiently of stably transfected (using FuGENE 6, Roche) with hFGFR2IIIca or hFGFR2IIIca-Y328D cloned in pcDNA3 (Invitrogen). Stably transfected cells were grown in G418 (400 μg/ml) containing medium. Before stimulation, the cells were starved overnight in DMEM (0% serum), and pre-incubated with […] at the required concentration. The cells were subsequently stimulated with FGF2 (concentration between 0.5-10 ng/ml) for 5 min at 37° C. with or without SSR or SU5402 at 1 μM. After washing with ice-cold phosphate-buffered saline containing phosphatase inhibitors (Roche), cells were lysed in RIPA buffer (Tris 30 mM HCl pH 7.5, 150 mM NaCl, 1 mM EDTA, 1% triton-X, 0.5% w/v deoxycholate, containing phophatase and protease inhibitors as described by the manufacturer (Roche)). Cell lysates were centrifuged at 12,000 g for 10 min, and the supernatants were collected. Proteins were separated on Novex polyacrylamide gels (Invitrogen, Carlsbad, Calif.) and subsequently transferred onto Hybond ECL nitrocellulose membranes (Amersham Pharmacia). Following incubation with 5% non-fat milk powder in PBS, the membranes were incubated overnight at 4° C. with the following antibodies: phospho-ERK1/2 (CST:9101), phospho-FRS2 (CST:3861), phospho-PLCγ (CST:2821) and FGFR2 (F0300, Sigma).

Assay [3] has as its target FGFR2^∂23-Y328D (Homo sapiens, UniProt P21802, Y328D). Described as above. In kind it is cell-based. Also on record: stably transfected HEK293 cells with full length FGFR2-WT or -Y328D; expressed in transfected cells; host or cells: HEK293. To be noted: stable HEK293 FGFR2 Y328D cells; FGF2 0.5 ng/ml 5 min; average±sem, three experiments; read-out: IC50 value, inhibition of FGF2 induced ERK1/2 phosphorylation. As to the method:
as §1

T2 sequence (P11362 22-822): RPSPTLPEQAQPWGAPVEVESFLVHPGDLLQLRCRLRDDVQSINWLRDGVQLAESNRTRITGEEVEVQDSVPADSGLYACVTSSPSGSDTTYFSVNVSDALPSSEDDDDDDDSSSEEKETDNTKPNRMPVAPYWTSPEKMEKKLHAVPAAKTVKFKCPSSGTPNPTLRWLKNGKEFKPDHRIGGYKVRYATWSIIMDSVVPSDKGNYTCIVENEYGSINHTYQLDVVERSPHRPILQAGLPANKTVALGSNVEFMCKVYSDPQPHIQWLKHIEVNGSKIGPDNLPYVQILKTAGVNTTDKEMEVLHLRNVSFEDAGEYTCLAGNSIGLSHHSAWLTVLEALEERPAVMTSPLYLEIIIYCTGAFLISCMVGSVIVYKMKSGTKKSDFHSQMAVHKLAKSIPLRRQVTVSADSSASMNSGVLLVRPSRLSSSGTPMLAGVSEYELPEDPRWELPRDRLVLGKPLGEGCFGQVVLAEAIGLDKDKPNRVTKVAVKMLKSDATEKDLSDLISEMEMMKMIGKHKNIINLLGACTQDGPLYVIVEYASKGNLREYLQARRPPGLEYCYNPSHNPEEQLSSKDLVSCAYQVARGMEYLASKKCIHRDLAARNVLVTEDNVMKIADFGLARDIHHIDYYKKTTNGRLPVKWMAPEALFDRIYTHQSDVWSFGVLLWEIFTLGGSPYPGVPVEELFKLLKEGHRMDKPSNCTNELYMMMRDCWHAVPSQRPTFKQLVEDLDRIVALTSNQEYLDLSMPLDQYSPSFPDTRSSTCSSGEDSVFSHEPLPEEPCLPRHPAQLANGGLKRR
T3 sequence (P22607 145-365): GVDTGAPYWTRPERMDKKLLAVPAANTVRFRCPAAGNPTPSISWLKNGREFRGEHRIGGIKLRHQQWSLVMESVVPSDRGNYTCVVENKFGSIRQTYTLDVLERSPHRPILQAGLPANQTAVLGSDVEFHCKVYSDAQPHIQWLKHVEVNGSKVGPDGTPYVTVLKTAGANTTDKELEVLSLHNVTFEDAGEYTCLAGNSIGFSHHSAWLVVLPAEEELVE
Sequence of FGFR2^∂23-Y328D (Homo sapiens, UniProt P21802, Y328D) (P21802 22-821 Y328D): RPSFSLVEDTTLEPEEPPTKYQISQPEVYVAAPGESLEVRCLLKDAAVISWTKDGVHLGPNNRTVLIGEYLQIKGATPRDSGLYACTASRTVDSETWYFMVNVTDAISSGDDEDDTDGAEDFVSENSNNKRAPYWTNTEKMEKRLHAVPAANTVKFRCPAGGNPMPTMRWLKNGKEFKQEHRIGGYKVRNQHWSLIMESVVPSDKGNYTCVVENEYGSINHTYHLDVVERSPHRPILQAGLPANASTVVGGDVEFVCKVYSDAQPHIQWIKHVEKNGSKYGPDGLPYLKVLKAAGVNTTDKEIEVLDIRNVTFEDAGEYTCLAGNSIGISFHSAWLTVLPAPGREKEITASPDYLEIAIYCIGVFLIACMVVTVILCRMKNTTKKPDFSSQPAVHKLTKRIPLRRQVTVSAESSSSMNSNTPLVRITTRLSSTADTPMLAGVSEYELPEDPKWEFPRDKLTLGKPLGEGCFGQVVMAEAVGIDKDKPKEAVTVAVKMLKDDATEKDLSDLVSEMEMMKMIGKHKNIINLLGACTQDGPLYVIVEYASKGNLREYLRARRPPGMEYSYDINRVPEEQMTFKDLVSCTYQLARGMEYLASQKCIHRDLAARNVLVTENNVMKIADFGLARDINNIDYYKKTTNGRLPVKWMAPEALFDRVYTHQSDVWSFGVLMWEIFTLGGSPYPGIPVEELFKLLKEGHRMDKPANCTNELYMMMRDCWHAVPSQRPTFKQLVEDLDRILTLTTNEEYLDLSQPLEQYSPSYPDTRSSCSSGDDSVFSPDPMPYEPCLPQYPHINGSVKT
T1 sequence (P21802 22-821): as the sequence (P21802 22-821 Y328D) above, with D307Y counted along it

Turning to `COc1c(C)c(C(=O)c2ccc(N)c(C(=O)[O-])c2)n2ccccc12.[Na+]` [SSR], the “binding of FGF2 or FGF4 to FGFR2” value on FGFR2 is recorded as “failed to antagonize”. Also, the “FGF2-induced FGFR1 tyrosine phosphorylation” value in assay [1] (SSR in the nanomolar concentration range) is reported as “highly reduced”. For the same compound, the “residual FGFR1 tyrosine phosphorylation” value in assay [1] (even at high doses) is “does not completely eliminate FGFR1 tyrosine phosphorylation”. Moreover, the FGF2 dimerization entry on FGF2 was “not able to inhibit”. Moreover, in the assay with HUVEC (EGF 100 ng/ml), the “cellular response (migration) induced by EGF” value is listed as “did not affect”. Besides, in the assay on HUVEC (IGF-I 100 ng/ml), the “cellular response (migration) induced by IGF” value is recorded as “did not affect”. In the assay with HUVEC (PDGF-BB 100 ng/ml), the “cellular response (migration) induced by PDGF-BB” value is “did not affect”. In addition, the “cellular response (migration) induced by PIGF” value with HUVEC (PIGF 100 ng/ml) was “did not affect”. Further, the “binding to FGFR3” value on FGFR3^∂23 was “bound”. Besides, the “sensitivity to SSR inhibition, FGFR2-Y328D compared to FGFR2-WT” value in the assay with FGFR2^∂23-Y328D [2] is reported as “about 5 times less sensitive”. The IC50 at FGFR2^∂23-Y328D [3] turned out to be 121 ± 30 nM.
